In patent US12023319B2, “Carboxylic acid aromatic amides” (priority 2016, dated 2024):

Key:
[1] = molecular target: T1, native human Bradykinin B1 receptor (Homo sapiens, UniProt P46663); test: Calcium flux assay (FLIPR) with IMR-90 human fibroblasts expressing Bradykinin B1 receptor after IL-1beta induction (hB1 IMR-90); format: cell-based; conditions: IMR-90 human fibroblasts after IL-1beta induction, read-out: hB1 IMR90 IC50
T1 construct: which express native human Bradykinin B1 receptor after induction with human IL-1beta; Coriell Institute; host or cells: IMR-90 human foetal lung fibroblasts, induced with human IL-1beta
T1 sequence (P46663 1-353): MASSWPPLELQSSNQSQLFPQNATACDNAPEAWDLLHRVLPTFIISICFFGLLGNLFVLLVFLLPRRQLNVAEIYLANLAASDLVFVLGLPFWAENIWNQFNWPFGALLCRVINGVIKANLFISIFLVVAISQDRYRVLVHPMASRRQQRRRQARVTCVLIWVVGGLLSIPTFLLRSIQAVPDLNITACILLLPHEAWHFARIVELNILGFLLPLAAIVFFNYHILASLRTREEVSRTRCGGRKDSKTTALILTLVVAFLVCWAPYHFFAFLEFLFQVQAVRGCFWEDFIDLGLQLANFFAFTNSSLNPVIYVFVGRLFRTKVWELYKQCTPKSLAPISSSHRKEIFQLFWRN
Experimental: Calcium Flux Assay (FLIPR) with Human Fibroblasts Expressing Bradykinin B1 Receptor (hB1 IMR-90)
The Calcium flux Assay was carried out utilising IMR-90 human foetal lung fibroblasts (American Type Culture Collection, Rockville, MD; and Coriell Institute, Camden, New Jersey), which express native human Bradykinin B1 receptor after induction with human IL-1beta.
The fibroblasts were cultured in complete growth media comprised of Dulbecco's modified Eagle's medium (DMEM; Sigma) containing 10% foetal bovine serum, 4 mM L-glutamine, and 1% nonessential amino acids. The cells were maintained in a humidified atmosphere with 5% CO2 at 37° C. and were sub-cultured at a ratio of 1:3, every other day.
For the assay, IMR-90 fibroblasts were harvested using TrypLE Express (GIBCO/Invitrogen) and seeded into 384-well plates (Corning Cellbinding Surface, Cat. 3683) at a density of 15000 cells/well. The following day, cells were treated with 0.35 ng/mL human IL-1beta in 10% FBS/MEM for 3 h to up-regulate Bradykinin B1 receptor. Induced cells were loaded with fluorescent calcium indicator by incubation with 2.5 μM Fluo-4/AM (Invitrogen) at 37° C., 5% CO2 for 2 h in the presence of 2.5 mM probenecid in 1% FBS/MEM. […] Compound examples were assayed at 8 concentrations in triplicate. […] A peptide antagonist Lys-(Des-Arg-Leu)-Bradykinin (Bachem, Brackley) at 20 µM was used to determine the full inhibition as control. IC50 values were determined by the same way described for the FLI PR assay with recombinant cells.

[2] = molecular target: T2, human Bradykinin B1 receptor (Homo sapiens, UniProt P46663); test: Calcium flux assay (FLIPR), CHO-K1 cells expressing human Bradykinin B1 receptor, absence of 0.1% BSA (hB1 free IC50); format: cell-based; conditions: absence of 0.1% BSA in assay buffer
T2 construct: host or cells: CHO-K1
T2 sequence (P46663 1-353): T1 sequence (P46663 1-353)
In short: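 Peak FLIPR fluorescence (538 nm) after B1 agonist peptide addition gave IC50s, scaled between DMSO and full block by 20 µM Lys-(Des-Arg-Leu)-Bradykinin. Compounds were preincubated 30 min at 28° C with calcium-dye-loaded CHO-K1 cells expressing human B1, at 8 concentrations in triplicate, 1% DMSO final.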

SMILES	IC50 [1]	IC50 [2]
O=C(O)c1cc(NC(=O)C2(c3ccc(F)cn3)CC2)cc(F)c1-c1cnn(C2CCC2)c1 [Example 44, 2-(1-Cyclobutyl-1H-pyrazol-4-yl)-3-fluoro-5-({[1-(5-fluoropyridin-2-yl)cyclopropyl]carbonyl}amino)benzoic acid]	58 nM	45 nM
CC(C)(C)c1ccn(-c2ccc(NC(=O)C3(c4ccc(C(F)(F)F)cc4F)CC3)cc2C(=O)O)n1 [Example 12, 2-(3-tert-Butyl-1H-pyrazol-1-yl)-5-[({1-[2-fluoro-4-(trifluoromethyl)phenyl]cyclopropyl}carbonyl)amino]benzoic acid]	2900 nM	1200 nM
Cc1ccc(-c2ccc(NC(=O)C3(c4ccc(C(F)(F)F)cc4F)CC3)cc2C(=O)O)nc1 [Example 18, 5-[({1-[2-Fluoro-4-(trifluoromethyl)phenyl]cyclopropyl}carbonyl)amino]-2-(5-methylpyridin-2-yl)benzoic acid]	830 nM	270 nM
CCC(F)(F)c1ccc(-c2ccc(NC(=O)C3(c4ccc(C)cc4F)CC3)cc2C(=O)O)cn1 [Example 26, 2-[6-(1,1-Difluoropropyl)pyridin-3-yl]-5-({[1-(2-fluoro-4-methylphenyl)cyclopropyl]carbonyl}amino)benzoic acid]	130 nM	140 nM
Cc1ccc(C2(C(=O)Nc3ccc(-n4cc(C(C)(C)C)cn4)c(C(=O)O)c3)CC2)c(F)c1 [Example 14, 2-(4-tert-Butyl-1H-pyrazol-1-yl)-5-({[1-(2-fluoro-4-methylphenyl)cyclopropyl]carbonyl}amino)benzoic acid]	1100 nM	1000 nM
CC(C)n1cc(-c2c(F)cc(NC(=O)C3(c4ccc(C(F)(F)F)cc4F)CC3)cc2C(=O)O)cn1 [Example 88, 3-Fluoro-5-[({1-[2-fluoro-4-(trifluoromethyl)phenyl]cyclopropyl}carbonyl)amino]-2-[1-(propan-2-yl)-1H-pyrazol-4-yl]benzoic acid]	10 nM	32 nM
O=C(O)c1cc(NC(=O)C2(c3ccc(Cl)cc3F)CC2)ccc1-c1cnn(C2CCC2)c1 [Example 53, 5-({[1-(4-Chloro-2-fluorophenyl)cyclopropyl]carbonyl}amino)-2-(1-cyclobutyl-1H-pyrazol-4-yl)benzoic acid]	15 nM	32 nM
CC(C)(C)c1cnn(-c2ccc(NC(=O)C3(c4ccc(OC(F)(F)F)cc4F)CC3)cc2C(=O)O)c1 [Example 13, 2-(4-tert-Butyl-1H-pyrazol-1-yl)-5-[({1-[2-fluoro-4-(trifluoromethoxy)phenyl]cyclopropyl}carbonyl)amino]benzoic acid]	310 nM	110 nM
O=C(O)c1cc(NC(=O)C2(c3ccc(C(F)(F)F)cc3F)CC2)ccc1-c1ccc(C(F)F)nc1 [Example 4, 2-[6-(Difluoromethyl)pyridin-3-yl]-5-[({1-[2-fluoro-4-(trifluoromethyl)phenyl]cyclopropyl}carbonyl)amino]benzoic acid]	3400 nM	110 nM
O=C(O)c1cc(NC(=O)C2(c3ccc(C(F)(F)F)cc3F)CC2)ccc1-c1cc2cccnc2s1 [Example 46, 5-[({1-[2-Fluoro-4-(trifluoromethyl)phenyl]cyclopropyl}carbonyl)amino]-2-(thieno[2,3-b]pyridin-2-yl)benzoic acid]		58 nM

Now those with a lower IC50 [2], led by results:

IC50 [1]	IC50 [2]	SMILES
13 nM	14 nM	Cc1cc(NC(=O)C2(c3ccc(OC(F)(F)F)cc3F)CC2)cc(C(=O)O)c1-c1cnn(C2CCC2)c1 [Example 108, 2-(1-Cyclobutyl-1H-pyrazol-4-yl)-5-[({1-[2-fluoro-4-(trifluoromethoxy)phenyl]cyclopropyl}carbonyl)amino]-3-methylbenzoic acid]
18 nM	11 nM	CC(C)Cn1cc(-c2ccc(NC(=O)C3(c4ccc(OC(F)(F)F)cc4F)CC3)cc2C(=O)O)cn1 [Example 75, 5-[({1-[2-Fluoro-4-(trifluoromethoxy)phenyl]cyclopropyl}carbonyl)amino]-2-[1-(2-methylpropyl)-1H-pyrazol-4-yl]benzoic acid]
35 nM	8.4 nM	CCC(F)(F)c1ccc(-c2c(Cl)cc(NC(=O)C3(c4ccc(OC(F)(F)F)cc4F)CC3)cc2C(=O)O)cn1 [Example 106, 3-Chloro-2-[6-(1,1-difluoropropyl)pyridin-3-yl]-5-[({1-[2-fluoro-4-(trifluoromethoxy)phenyl]cyclopropyl}carbonyl)amino]benzoic acid]
5.9 nM	14 nM	Cc1ccc(C2(C(=O)Nc3cc(F)c(-c4cnn(C5CCC5)c4)c(C(=O)O)c3)CC2)c(F)c1 [Example 25, 2-(1-Cyclobutyl-1H-pyrazol-4-yl)-3-fluoro-5-({[1-(2-fluoro-4-methylphenyl)cyclopropyl]carbonyl}amino)benzoic acid]
33 nM	18 nM	CCOc1ccc(-c2ccc(NC(=O)C3(c4ccc(C(F)(F)F)cc4F)CC3)cc2C(=O)O)cn1 [Example 10, 2-(6-Ethoxypyridin-3-yl)-5-[({1-[2-fluoro-4-(trifluoromethyl)phenyl]cyclopropyl}carbonyl)amino]benzoic acid]
13 nM	17 nM	CC(C)(C)Cn1cc(-c2ccc(NC(=O)C3(c4ccc(OC(F)(F)F)cc4F)CC3)cc2C(=O)O)cn1 [Example 77, 2-[1-(2,2-Dimethylpropyl)-1H-pyrazol-4-yl]-5-[({1-[2-fluoro-4-(trifluoromethoxy)phenyl]cyclopropyl}carbonyl)amino]benzoic acid]
5.6 nM	20 nM	O=C(O)c1cc(NC(=O)C2(c3ccc(OC(F)(F)F)cc3)CC2)cc(F)c1-c1cnn(C2CCC2)c1 [Example 37, 2-(1-Cyclobutyl-1H-pyrazol-4-yl)-3-fluoro-5-[({1-[4-(trifluoromethoxy)phenyl]cyclopropyl}carbonyl)amino]benzoic acid]
25 nM	19 nM	CCOc1ccc(-c2ccc(NC(=O)C3(c4ccc(OC(F)(F)F)cc4F)CC3)cc2C(=O)O)cn1 [Example 11, 2-(6-Ethoxypyridin-3-yl)-5-[({1-[2-fluoro-4-(trifluoromethoxy)phenyl]cyclopropyl}carbonyl)amino]benzoic acid]
6.1 nM	18 nM	O=C(O)c1cc(NC(=O)C2(c3ccc(C(F)(F)F)c(F)c3)CC2)cc(F)c1-c1cnn(C2CCC2)c1 [Example 39, 2-(1-Cyclobutyl-1H-pyrazol-4-yl)-3-fluoro-5-[({1-[3-fluoro-4-(trifluoromethyl)phenyl]cyclopropyl}carbonyl)amino]benzoic acid]
5.5 nM	3.5 nM	O=C(O)c1cc(NC(=O)C2(c3ccc(OC(F)(F)F)cc3F)CC2)cc(Cl)c1-c1cnn(C2CCC2)c1 [Example 101, 3-Chloro-2-(1-cyclobutyl-1H-pyrazol-4-yl)-5-[({1-[2-fluoro-4-(trifluoromethoxy)phenyl]cyclopropyl}carbonyl)amino]benzoic acid]
	18 nM	CCn1cc(-c2c(F)cc(NC(=O)C3(c4ccc(C(F)(F)F)cc4F)CC3)cc2C(=O)O)cn1 [Example 138, 2-(1-Ethyl-1H-pyrazol-4-yl)-3-fluoro-5-[({1-[2-fluoro-4-(trifluoromethyl)phenyl]cyclopropyl}carbonyl)amino]benzoic acid]
